Assay results as given in patent US10131663B2, “Chemical compounds” (AstraZeneca AB, priority 2016, dated 2018).
≈ marks a conversion by molar mass, not a printed value. Read-outs that look alike come from different tables or passages of the source.

Assays:
[1] = Thermodynamic solubility (shake-flask); type: physicochemical; conditions: aqueous phosphate buffer, 25 °C, pH 7.4, aqueous buffer, thermodynamic from solid, aqueous phosphate buffer pH 7.4, 24 hours
Procedure, shortened: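 Shake-flask method starting from 10 mM DMSO stocks, which are dried before use. Residue equilibrated 24 h at 25° C. in aqueous phosphate buffer, pH 7.4. Dissolved fraction separated and quantified by UPLC/MS/MS, with QC samples in each run.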

[2] = log D (shake flask, 1-octanol/aqueous buffer); type: physicochemical
Procedure, shortened: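 Distribution between 1-octanol and aqueous buffer at pH 7.4 was measured by shake flask, with compounds run in mixtures of ten. Relative concentrations in each phase were quantified by UPLC with quantitative MS. Caffeine served as a low-log D QC sample in all runs.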

[3] = biological target: recombinant human Estrogen Receptor alpha ligand binding domain (ER alpha-LBD (GST)) (Homo sapiens (Human), UniProt P03372); experiment: ERα binding assay (LanthaScreen TR-FRET competition)
Sequence of recombinant human Estrogen Receptor alpha ligand binding domain (ER alpha-LBD (GST)) (P03372 307-554): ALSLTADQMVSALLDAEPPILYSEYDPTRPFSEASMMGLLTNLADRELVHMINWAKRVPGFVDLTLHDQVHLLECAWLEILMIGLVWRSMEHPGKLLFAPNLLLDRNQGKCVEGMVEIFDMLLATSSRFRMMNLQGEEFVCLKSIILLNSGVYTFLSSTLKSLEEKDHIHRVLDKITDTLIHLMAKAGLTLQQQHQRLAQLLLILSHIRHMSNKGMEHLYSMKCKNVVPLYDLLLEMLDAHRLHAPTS
Experimental: The ability of compounds to bind to isolated Estrogen Receptor Alpha Ligand binding domain (ER alpha-LBD (GST)) was assessed in competition assays using a LanthaScreen™ Time-Resolved Fluorescence Resonance Energy Transfer (TR-FRET) detection end-point. […] The assay principle is that ER alpha-LBD (GST) is added to a fluorescent ligand to form a receptor/fluorophore complex. A terbium-labelled anti-GST antibody (Product code PV3551) is used to indirectly label the receptor by binding to its GST tag, and competitive binding is detected by a test compound's ability to displace the fluorescent ligand, resulting in a loss of TR-FRET signal between the Tb-anti-GST antibody and the tracer. The assay was performed as follows with all reagent additions carried out using the Beckman Coulter BioRAPTR FRD microfluidic workstation: • 1. Acoustic dispense 120 nL of the test compound into a black low volume 384 well assay plates. • 2. Prepare 1×ER alpha-LBD/Tb-antiGST Ab in ES2 screening buffer and incubate for 15 minutes. • 3. Dispense 6 μL of the 1×[…]/Tb-anti-GST Ab reagent into each well of the assay plate followed by 6 μL of Fluorophore reagent into each well of the assay plate • 4. Cover the assay plate to protect the reagents from light and evaporation, and incubate at room temperature for 4 hours. • 5.
TR-FRET dose response data obtained with each compound was exported into a suitable software package (such as Origin or Genedata) to perform curve fitting analysis. Competitive ER alpha binding was expressed as an IC50 value.

[4] = Human plasma protein binding (equilibrium dialysis); type: in vitro ADME; conditions: dialysis 18 hours
Procedure, shortened: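 Fraction unbound (fu %) in human plasma, from LC/MSMS of plasma and buffer sides (7-point plasma calibration) after 18 h rapid equilibrium dialysis. Single determinations, with compounds pooled up to 10 per plasma pool.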

[5] = biological target: T1, Estrogen Receptor (ERα) in MCF-7 cells (Homo sapiens (Human), UniProt P03372); experiment: MCF-7 ER down-regulation assay (immuno-fluorescence); type: cell-based
T1 sequence (P03372 whole entry): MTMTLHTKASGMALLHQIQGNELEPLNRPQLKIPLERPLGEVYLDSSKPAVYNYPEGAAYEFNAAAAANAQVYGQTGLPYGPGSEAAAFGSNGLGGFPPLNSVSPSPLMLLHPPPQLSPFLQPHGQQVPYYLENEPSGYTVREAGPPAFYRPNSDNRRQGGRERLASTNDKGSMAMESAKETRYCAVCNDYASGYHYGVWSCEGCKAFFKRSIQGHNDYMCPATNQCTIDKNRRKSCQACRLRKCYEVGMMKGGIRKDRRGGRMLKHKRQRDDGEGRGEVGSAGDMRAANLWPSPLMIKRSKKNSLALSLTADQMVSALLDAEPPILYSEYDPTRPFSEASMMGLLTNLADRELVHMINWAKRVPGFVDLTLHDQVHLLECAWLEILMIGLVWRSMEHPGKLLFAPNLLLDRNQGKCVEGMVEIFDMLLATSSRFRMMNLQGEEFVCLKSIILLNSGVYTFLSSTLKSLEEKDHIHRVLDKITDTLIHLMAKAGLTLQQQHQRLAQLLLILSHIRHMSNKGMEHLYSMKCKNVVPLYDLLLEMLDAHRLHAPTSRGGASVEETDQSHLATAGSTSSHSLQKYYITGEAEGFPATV
Experimental: The Echo uses acoustic technology to perform direct microplate-to-microplate transfers of DMSO compound solutions to assay plates. […] Cells were fixed at room temperature for 20 mins before being washed two times with 250 μL PBS/Proclin (PBS with a Biocide preservative) using a BioTek platewasher, 40 μL of PBS/Proclin was then added to all wells and the plates stored at 4° C. The fixing method described above was carried out on the Integrated Echo 2 workcell. Immunostaining was performed using an automated AutoElisa workcell. […] The plates were incubated overnight at 4° C. […] The mean total intensity was normalized for cell number giving the total intensity per cell. The data was exported into a suitable software package (such as Origin) to perform curve fitting analysis.

[6] = biological target: T1, Estrogen Receptor (ERα) in MCF-7 cells; experiment: Western blotting assay, ER down-regulation in MCF-7; type: cell-based; conditions: 100 nM compound, 48 h, normalised to 100 nM fulvestrant
Experimental: (§1) Cells were incubated with compounds (100 nM) or vehicle control (0.1% DMSO) for 48 h at 37° C., 5% CO2 before washing once with PBS and lysing with 80 μl lysis buffer (25 mM Tris/HCl, 3 mM EDTA, 3 mM EGTA, 50 mM NaF, 2 mM sodium orthovanadate, 0.27 M sucrose, 10 mM β-glycerophosphate, 5 mM sodium pyrophosphate, 0.5% TritonX-100, pH 6.8) on ice.
(§2) Samples were boiled for 10 min at 95° C. and then frozen at −20° C. until ready for use.
(§3) The blot was stained with Ponceau S (P7170, Sigma) and cut according to appropriate molecular weight markers.
(§4) Membranes were blocked for 1 hour at room temp in 5% Marvel (w/v) in phosphate-buffered saline containing 0.05% Tween™ 20 (PBS/Tween). Blots were then incubated with anti-ERα (SP1) rabbit monoclonal antibody (Thermofisher) diluted 1:1000 at 4° C. overnight (with gentle shaking) followed by several washes with PBS/Tween. […] All antibodies were made up in 5% Marvel (w/v) in PBS/Tween.
(§5) Down-regulation of the ERα receptor was normalised to the vehicle control (0% down-regulation) and the 100 nM fulvestrant control (100% down-regulation) run within the same gel.

[7] = biological target: estrogen receptor (ERα) in CAMA-1 cells (Homo sapiens (Human), UniProt P03372); experiment: Western blotting assay, ER down-regulation in CAMA-1; type: cell-based; conditions: 100 nM compound, 48 h, normalised to 100 nM fulvestrant
Sequence of estrogen receptor (ERα) in CAMA-1 cells (P03372 whole entry): as above
Experimental: as §1, §2, §3, §4, §5

[8] = Human Caco-2 bidirectional permeability A to B and B to A; type: in vitro ADME; conditions: for Papp at 2 h: Caco-2, 2 hours, pH 7.4; for efflux ratio at 2 h: Caco-2, pH 7.4
Experimental: An automated assay was used to determine the bidirectional permeability (efflux and uptake) of compounds in Caco-2 cells carried out over 2 hours at pH 7.4.
The efflux ratio (ER) can be determined using the following equation: ER=Papp(B-A)/Papp(A-B) Where Papp (B-A) indicates the apparent permeability coefficient in basolateral to apical direction, and Papp (A-B) indicates the apparent permeability coefficient in apical to basolateral direction. Human Caco-2 Passive Permeability A to B Papp

[9] = biological target: hERG potassium channel (Homo sapiens (Human), UniProt Q12809); experiment: hERG binding assay (automated patch clamp, CHO cells); type: cell-based; conditions: CHO cell line, Nanion Syncropatch 384PE
Sequence of hERG potassium channel (Q12809 whole entry): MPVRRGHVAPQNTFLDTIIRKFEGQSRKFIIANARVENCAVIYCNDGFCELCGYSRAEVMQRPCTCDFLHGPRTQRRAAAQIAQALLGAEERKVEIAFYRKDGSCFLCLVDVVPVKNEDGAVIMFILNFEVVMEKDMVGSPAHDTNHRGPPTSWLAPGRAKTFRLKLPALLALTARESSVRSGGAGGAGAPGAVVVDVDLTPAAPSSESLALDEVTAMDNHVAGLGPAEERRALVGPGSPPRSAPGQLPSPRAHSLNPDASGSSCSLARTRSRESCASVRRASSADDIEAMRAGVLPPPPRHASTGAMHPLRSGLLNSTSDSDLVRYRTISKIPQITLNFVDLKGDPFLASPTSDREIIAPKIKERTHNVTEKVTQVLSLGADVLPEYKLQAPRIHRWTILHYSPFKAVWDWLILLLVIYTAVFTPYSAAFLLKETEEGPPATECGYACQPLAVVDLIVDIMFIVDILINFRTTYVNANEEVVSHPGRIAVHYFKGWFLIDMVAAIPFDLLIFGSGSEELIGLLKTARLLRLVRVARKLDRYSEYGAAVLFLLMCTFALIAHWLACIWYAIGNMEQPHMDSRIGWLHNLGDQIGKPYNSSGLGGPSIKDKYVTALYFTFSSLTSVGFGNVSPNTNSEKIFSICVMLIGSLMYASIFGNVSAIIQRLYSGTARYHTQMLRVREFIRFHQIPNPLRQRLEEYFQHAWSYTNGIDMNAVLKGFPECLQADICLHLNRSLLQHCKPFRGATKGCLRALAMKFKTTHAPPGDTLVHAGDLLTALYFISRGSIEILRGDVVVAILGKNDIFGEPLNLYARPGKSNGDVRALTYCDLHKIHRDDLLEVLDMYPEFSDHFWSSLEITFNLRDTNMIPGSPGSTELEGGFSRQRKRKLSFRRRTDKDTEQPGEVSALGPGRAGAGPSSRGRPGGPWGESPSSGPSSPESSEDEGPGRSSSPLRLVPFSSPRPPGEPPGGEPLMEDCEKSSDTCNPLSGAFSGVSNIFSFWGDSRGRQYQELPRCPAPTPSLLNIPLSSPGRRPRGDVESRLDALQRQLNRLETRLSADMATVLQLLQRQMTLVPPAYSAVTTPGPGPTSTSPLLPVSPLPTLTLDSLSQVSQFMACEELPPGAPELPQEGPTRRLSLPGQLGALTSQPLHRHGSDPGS
Experimental: Reagent preparations include: • 1.
Cell preparations: • 1. If using cell culture; cells to be incubated at 30° C. for approximately 4-6 days prior to being used. Day of assay lift cells using accutase and re-suspend in 20 ml cell buffer to a density of 0.8 to 1e6 cells/ml. • 2. If using assay ready cryovials; rapidly thaw two cryovials at 37° C. and slowly pipette into 23 ml external solution • 3.
All compounds were acoustically dispensed in quadruplicate using a Labcyte Echo. […] Fill 384 well medium resistance 4 hole chips with 40 μl external buffer and perfuse internal buffer to the underside of plate. • 2. Dispense 20 μl of cells into each well of the chip followed by 20 μl of seal enhancer. • 3. Remove 40 μl of reagent from each well to the wash station, leaving a residual volume of 40 μl • 4. Dispense 40 μl of reference buffer with a removal step of 40 μl after 3 min, repeat this step. • 5.
hERG-mediated currents were elicited using a voltage step protocol consisting of acontinuous holding voltage of −80 mV, with a 500 ms step to 60 mV followed by a 500 ms step to −40 mV every 15 seconds. hERG current magnitude was measured automatically from the leak-subtracted traces by the Nanion software by taking the peak of the hERG “tail” current at −40 mV every 15 seconds and taking the last three of these responses for each concentration to generate the concentration-effect curve.
Calculation of results is performed using APC package within Genedata. For the routine normalization of well data with Neutral and Inhibitor control well groups as reference, GeneData Assay Analyzer uses the following equation to normalize the signal values to the desired signal range:
[formula] • x is the measured raw signal value of a well • is the median of the measured signal values for the Central Reference (Neutral) wells on a plate • is the median of the measured signal values for the Scale Reference (Inhibitor) wells on a plate • CR is the desired median normalized value for the Central Reference (Neutral) • SR is the desired median normalized value for the Scale Reference (Inhibitor)

[10] = pH 7.4, 1-octanol/aqueous buffer
[11] = TR-FRET, displacement of Fluormone ES2
[12] = 1-octanol/aqueous buffer, pH 7.4, pH 7.4, 1-octanol/aqueous buffer

## COc1cc(OC2CN(CCCF)C2)ccc1[C@@H]1c2ccc3[nH]ncc3c2C[C@@H](C)N1CC1(F)CC1 [Example 7, (6S,8R)-7-((1-fluorocyclopropyl)methyl)-6-(4-((1-(3-fluoropropyl)azetidin-3-yl)oxy)-2-methoxyphenyl)-8-methyl-6,7,8,9-tetrahydro-3H-pyrazolo[4,3-f]isoquinoline]
[1]
  solubility at 24 h: 470 µM (≈ 233 µg/mL)
[2]; [10]
  logD: 3.5
[3]; [11]
  IC50: 8.4 nM
[4]
  Human plasma protein binding (% free): 11 % free
[5]
  IC50: 0.4 nM
[6]
  MCF7 Western % ER deg vs Fv: 90%
[7]
  CAMA1 Western % ER deg vs Fv: 90%

## C[C@@H]1Cc2c(ccc3[nH]ncc23)[C@@H](c2c(F)cc(NC3CN(CCCF)C3)cc2F)N1CC(F)(F)F [Example 8, N-(3,5-difluoro-4-((6S,8R)-8-methyl-7-(2,2,2-trifluoroethyl)-6,7,8,9-tetrahydro-3H-pyrazolo[4,3-f]isoquinolin-6-yl)phenyl)-1-(3-fluoropropyl)azetidin-3-amine]
[1]
  solubility at 24 h: 90 µM (≈ 46 µg/mL)
[2]; [12]
  logD: 4.4
[3]; [11]
  IC50: 2 nM
[4]
  Human plasma protein binding (% free): 0.99 % free
[5]
  IC50: 0.055 nM
[6]
  MCF7 Western % ER deg vs Fv: 101%
[7]
  CAMA1 Western % ER deg vs Fv: 100%

## COc1cc(NC2CN(CCCF)C2)ncc1[C@@H]1c2ccc3[nH]ncc3c2C[C@@H](C)N1CC1(F)CC1 [Example 9, 5-((6S,8R)-7-((1-fluorocyclopropyl)methyl)-8-methyl-6,7,8,9-tetrahydro-3H-pyrazolo[4,3-f]isoquinolin-6-yl)-N-(1-(3-fluoropropyl)azetidin-3-yl)-4-methoxypyridin-2-amine]
[1]
  solubility at 24 h: > 1000 µM
[2]; [12]
  logD: 1
[3]; [11]
  IC50: 360 nM
[4]
  Human plasma protein binding (% free): 21 % free
[5]
  IC50: > 300 nM
[6]
  MCF7 Western % ER deg vs Fv: −13%
[7]
  CAMA1 Western % ER deg vs Fv: 25%

## C[C@@H]1Cc2c(ccc3[nH]ncc23)[C@@H](c2ncc(NC3CN(CCCF)C3)cc2F)N1CC(F)(F)CO [Example 31, 2,2-Difluoro-3-((6S,8R)-6-(3-fluoro-5-((1-(3-fluoropropyl)azetidin-3-yl)amino)pyridin-2-yl)-8-methyl-3,6,8,9-tetrahydro-7H-pyrazolo[4,3-f]isoquinolin-7-yl)propan-1-ol]
[1]
  solubility at 24 h: > 942 µM
[2]; [12]
  logD: 2
[4]
  Human plasma protein binding (% free): 44 % free
[8]
  Papp at 2 h: 0.9 ×10⁻⁶ cm/s

## C[C@@H]1Cc2c(ccc3[nH]ncc23)[C@@H](c2ccc(NC3CN(CCCF)C3)c(F)n2)N1CC(F)F [Example 47, 6-((6S,8R)-7-(2,2-difluoroethyl)-8-methyl-6,7,8,9-tetrahydro-3H-pyrazolo[4,3-f]isoquinolin-6-yl)-2-fluoro-N-(1-(3-fluoropropyl)azetidin-3-yl)pyridin-3-amine]
[1]
  solubility at 24 h: > 1000 µM
[2]; [12]
  logD: 2.6
[3]; [11]
  IC50: 1.2 nM
[5]
  IC50: 0.41 nM
[8]
  Papp at 2 h: 18 ×10⁻⁶ cm/s
  efflux ratio at 2 h: 1.1

## COc1cc(NC2CN(CCC(F)(F)F)C2)ccc1[C@@H]1c2ccc3[nH]ncc3c2C[C@@H](C)N1CC1(F)CC1 [Example 56, N-(4-((6S,8R)-7-((1-fluorocyclopropyl)methyl)-8-methyl-6,7,8,9-tetrahydro-3H-pyrazolo[4,3-f]isoquinolin-6-yl)-3-methoxyphenyl)-1-(3,3,3-trifluoropropyl)azetidin-3-amine]
[1]
  solubility at 24 h: 377 µM (≈ 200 µg/mL)
[2]; [12]
  logD: 3.6
[3]; [11]
  IC50: 8.2 nM
[5]
  IC50: 0.58 nM
[6]
  MCF7 Western % ER deg vs Fv: 61%
[7]
  CAMA1 Western % ER deg vs Fv: 52%

## COc1cc(NC2CN(CCCF)C2)ccc1[C@@H]1c2ccc3[nH]ncc3c2C[C@@H](C)N1CC(F)(F)CO [Example 60, 2,2-difluoro-3-((6S,8R)-6-(4-((1-(3-fluoropropyl)azetidin-3-yl)amino)-2-methoxyphenyl)-8-methyl-3,6,8,9-tetrahydro-7H-pyrazolo[4,3-f]isoquinolin-7-yl)propan-1-ol]
[1]
  solubility at 24 h: 593 µM (≈ 307 µg/mL)
[2]; [10]
  logD: 2.5
[3]
  IC50: 4.7 nM
[9]
  IC50: 11000 nM
[4]
  Human plasma protein binding (% free): 23 % free
[5]
  IC50: 0.19 nM
[8]
  Papp at 2 h: 0.7 ×10⁻⁶ cm/s
  efflux ratio at 2 h: 34
